Measured values reported in patent US9388179B2, “N-substituted indazole sulfonamide compounds with selective activity in voltage-gated sodium channels” (Merck Sharp & Dohme Corp., priority 2012, dated 2016).
pIC50: −log10 of the molar value.

How the values were obtained:
Assay type in all cases: cell-based
[1] = biological target: T1, Nav 1.7 (Homo sapiens, UniProt Q15858); experiment: Comparative examples, Nav 1.7 activity (Patch Express or Ion Works, technique not given); details: Table IX, read-out: Activity: Nav 1.7 potency
T1 construct: expressed in transfected cells; host or cells: HEK 293
Procedure: (§1) Potency of the example compounds was assayed using Patch Express or Ion Works techniques, as reported herein. The results are reported below following each example number as follows: Ex-(no.) Nav 1.7 potency (nM) [ratio 1.5:1.7=Nav 1.5 potency (nM)/Nav1.7 potency (nM)].

[2] = biological target: T2, Nav 1.5 (Homo sapiens, UniProt Q14524); experiment: Comparative examples, Nav 1.5 activity (Patch Express or Ion Works, technique not given); details: Table IX
T2 construct: expressed in transfected cells; host or cells: HEK 293
T2 sequence (Q14524 whole entry): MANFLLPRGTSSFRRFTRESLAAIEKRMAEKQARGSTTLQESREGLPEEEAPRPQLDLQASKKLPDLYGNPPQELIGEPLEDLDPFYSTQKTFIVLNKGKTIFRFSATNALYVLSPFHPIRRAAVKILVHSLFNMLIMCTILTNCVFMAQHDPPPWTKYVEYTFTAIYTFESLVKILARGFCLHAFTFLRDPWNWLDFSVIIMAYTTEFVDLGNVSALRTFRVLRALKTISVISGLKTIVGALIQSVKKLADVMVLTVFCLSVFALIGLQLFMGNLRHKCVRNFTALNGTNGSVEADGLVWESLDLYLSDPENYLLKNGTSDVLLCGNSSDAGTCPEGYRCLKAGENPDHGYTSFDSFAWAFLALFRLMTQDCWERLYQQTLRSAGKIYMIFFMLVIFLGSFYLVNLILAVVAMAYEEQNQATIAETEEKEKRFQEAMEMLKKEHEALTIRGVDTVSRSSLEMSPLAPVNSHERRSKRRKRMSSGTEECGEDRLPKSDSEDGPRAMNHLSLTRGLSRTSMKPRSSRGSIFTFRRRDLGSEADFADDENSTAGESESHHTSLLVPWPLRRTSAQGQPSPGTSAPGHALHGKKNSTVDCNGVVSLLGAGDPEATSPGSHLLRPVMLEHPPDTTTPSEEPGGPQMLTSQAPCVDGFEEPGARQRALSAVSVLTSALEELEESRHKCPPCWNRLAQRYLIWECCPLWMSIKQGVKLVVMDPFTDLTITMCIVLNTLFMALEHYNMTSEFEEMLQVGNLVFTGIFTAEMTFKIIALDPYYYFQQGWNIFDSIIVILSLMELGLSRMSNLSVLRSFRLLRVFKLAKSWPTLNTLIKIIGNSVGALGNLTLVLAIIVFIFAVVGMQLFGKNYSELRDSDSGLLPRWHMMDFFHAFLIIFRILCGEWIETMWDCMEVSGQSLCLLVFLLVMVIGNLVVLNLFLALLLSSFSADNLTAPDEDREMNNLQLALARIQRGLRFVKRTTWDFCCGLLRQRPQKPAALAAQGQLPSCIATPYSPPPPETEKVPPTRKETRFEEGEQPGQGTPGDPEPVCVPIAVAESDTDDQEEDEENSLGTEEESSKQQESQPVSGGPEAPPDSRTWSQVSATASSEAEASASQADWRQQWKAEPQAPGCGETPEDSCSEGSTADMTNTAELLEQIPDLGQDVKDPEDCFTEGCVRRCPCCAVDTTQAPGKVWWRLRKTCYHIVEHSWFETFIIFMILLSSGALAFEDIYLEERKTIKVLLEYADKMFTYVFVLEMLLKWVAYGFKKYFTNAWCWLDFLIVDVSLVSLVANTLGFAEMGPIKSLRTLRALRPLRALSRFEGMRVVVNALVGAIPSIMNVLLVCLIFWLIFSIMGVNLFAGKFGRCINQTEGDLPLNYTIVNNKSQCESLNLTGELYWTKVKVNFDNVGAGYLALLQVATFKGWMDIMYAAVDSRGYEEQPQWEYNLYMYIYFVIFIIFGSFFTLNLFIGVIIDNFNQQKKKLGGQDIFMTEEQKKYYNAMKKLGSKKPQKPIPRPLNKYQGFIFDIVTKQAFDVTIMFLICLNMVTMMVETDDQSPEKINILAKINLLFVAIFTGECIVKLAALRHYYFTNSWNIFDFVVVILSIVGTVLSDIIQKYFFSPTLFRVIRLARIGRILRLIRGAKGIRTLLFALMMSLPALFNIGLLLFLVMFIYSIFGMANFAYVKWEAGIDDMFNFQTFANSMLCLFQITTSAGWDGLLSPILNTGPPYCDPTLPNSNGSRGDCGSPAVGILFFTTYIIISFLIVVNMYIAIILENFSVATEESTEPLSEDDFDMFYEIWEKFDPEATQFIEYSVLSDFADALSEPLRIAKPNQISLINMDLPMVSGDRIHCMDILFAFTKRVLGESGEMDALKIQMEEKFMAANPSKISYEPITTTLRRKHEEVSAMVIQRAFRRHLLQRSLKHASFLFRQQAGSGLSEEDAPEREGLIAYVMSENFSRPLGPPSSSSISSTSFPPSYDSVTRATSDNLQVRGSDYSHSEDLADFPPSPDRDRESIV
Procedure: as §1

[3] = biological target: T3, human Nav1.5 channels stably expressed in HEK 293 cells (Homo sapiens, UniProt Q14524); experiment: IonWorks Quattro automated patch-clamp, inactivated state block; details: IonWorks technique
T3 construct: expressed in transfected cells; host or cells: HEK 293
T3 sequence (Q14524 whole entry): as above
Procedure: (§2) For all electrophysiology experiments, offline analysis was used to correct for current rundown and to determine percent inhibition as a function of drug concentration. IC50 values were determined by fitting to the Hill equation.
(§3) Cell Based Assays for Nav 1.7 and Nav 1.5 Activity
(§4) Compounds were tested on human Nav1.7 and Nav1.5 channels stably expressed in HEK 293 cells. […] Cells were sealed on a planar substrate using the Population Patch […] (PPC) technology. Electrical access was obtained using both nystatin and amphotericin. A double-pulse protocol was used for the determination of IC50 values for inactivated state block. Nav1.7 and Nav1.5 expressing cells were voltage clamped at −100 mV and −110 mV, respectively. A depolarizing prepulse to −10 mV (Nav1.7) or −30 mV (Nav1.5) for 1000 ms followed by a 10 ms repolarization to −100 mV (Nav1.7) or −110 mV (Nav1.5) was given to generate fractional channel inactivation of 50%, followed by a 10 ms test pulse to −10 mV (Nav1.7) or −30 mV (Nav1.5) to measure peak current in control conditions and after compound addition. The following recording solutions were used (mM). External: 150 NaCl, 2 CaCl2, 5 KCl, 1 MgCl2, 10 HEPES, 12 Dextrose; internal: 120 CsF, 30 CsCl, 10 EGTA, 5 HEPES, 5 NaF, 2 MgCl2.

[4] = biological target: T4, human Nav1.7 channels stably expressed in HEK 293 cells (Homo sapiens, UniProt Q15858); experiment: as above; details: IonWorks technique; read-out: Nav 1.7 potency
T4 construct: expressed in transfected cells; host or cells: HEK 293
Procedure: as §2, §3, §4

[5] = biological target: T3, human Nav1.5 channels stably expressed in HEK 293 cells; experiment: PatchXpress 7000 automated patch-clamp, inactivated state block; details: PatchXpress technique
Procedure: as §2
(§5) Sodium Current Measurements on the PatchXpress 7000®:
(§6) To measure inactivated state block of sodium channels, test compounds were characterized in an automated PatchXpress® assay (Molecular Devices) using a double-pulse protocol on human Nav1.7 and Nav1.5 channels stably expressed in HEK 293 cells. Cells were held at a potential 20 mV negative to V0.5 inact. An 8000 ms pre-pulse 7 mV positive to V0.5 inact was given followed by a hyperpolarizing 2 ms pulse to −120 mV and a 20 ms test pulse to −20 mV. Protocol was applied to cells in the absence, presence of compound and after washout. The temperature of PatchXpress instruments was maintained at 22° C. The following recording solutions were used. Internal solution (mM): 30 CsCl, 5 HEPES, 10 EGTA, 120 CsF, 5 NaF, 2 MgCl2. External solution (mM): 120 NMDG, 40 NaCl, 1 KCl, 0.5 MgCl2, 5 HEPES, 2.7 CaCl2.

[6] = biological target: T4, human Nav1.7 channels stably expressed in HEK 293 cells; experiment: as above; details: PatchXpress technique; read-out: Nav 1.7 potency
Procedure: as §2, §5, §6

Row | Compound | pIC50 [1] | pIC50 [4] | pIC50 [6] | Activity: Ratio 1.5:1.7 [2] | Ratio 1.5:1.7 = Nav 1.5 potency (nM)/Nav1.7 potency (nM) [3] | Ratio 1.5:1.7 = Nav 1.5 potency (nM)/Nav1.7 potency (nM) [5]
1 | O=S(=O)(Nc1nccs1)c1ccc2nn(Cc3ccc(OC(C(F)(F)F)(C(F)(F)F)C(F)(F)F)cc3)cc2c1 [CE-03, 2-(4-(1,1,1,3,3,3-hexafluoro-2-(trifluoro-methyl)propan-2-yloxy)benzyl)-N-(thiazol-2-yl)-2H-indazole-5-sulfonamide] | 4.48 | – | – | 1 | – | –
2 | O=S(=O)(Nc1nccs1)c1ccc2c(cnn2Cc2ccc(OC(C(F)(F)F)(C(F)(F)F)C(F)(F)F)cc2)c1 [CE-02, 1-(4-(1,1,1,3,3,3-hexafluoro-2-(trifluoro-methyl)propan-2-yloxy)benzyl)-N-(thiazol-2-yl)-1H-indazole-5-sulfonamide] | 4.48 | – | – | 1 | – | –
3 | Nc1cc(-c2cc(Cl)ccc2Cn2ncc3cc(S(=O)(=O)Nc4ncns4)ccc32)ccn1 [CE-01, 1-(2-(2-aminopyridin-4-yl)-4-chlorobenzyl)-N-(1,2,4-thiadiazol-5-yl)-1H-indazole-5-sulfonamide] | 4.57 | – | – | 1 | – | –
4 | O=S(=O)(Nc1ncns1)c1ccc2c(cnn2Cc2ccccc2-c2cccc3c2CCNC3)c1 [Ex-22, 1-[2-(1,2,3,4-tetrahydroisoquinolin-5-yl)benzyl]-N-1,2,4-thiadiazol-5-yl-1H-indazole-5-sulfonamide] | – | 5.84 | 5.54 | – | 23 | > 10
5 | O=S(=O)(Nc1ncns1)c1ccc2c(cnn2Cc2ccccc2C2=CCNCCC2)c1 [Ex-23, 1-[2-(2,5,6,7-tetrahydro-1H-azepin-4-yl)benzyl]-N-1,2,4-thiadiazol-5-yl-1H-indazole-5-sulfonamide] | – | 5.77 | 5.35 | – | 19 | > 7
6 | C[C@@H](c1ccccc1)n1ncc2cc(S(=O)(=O)Nc3ncns3)c(F)cc21 [Ex-11, 6-fluoro-1-[(1S)-1-phenylethyl]-N-1,2,4-thiadiazol-5-yl-1H-indazole-5-sulfonamide] | – | 5.83 | 6.46 | – | 11 | 32

Now from value to compound, other results behind:

Row | pIC50 [1] | pIC50 [4] | pIC50 [6] | Compound | Activity: Ratio 1.5:1.7 [2] | Ratio 1.5:1.7 = Nav 1.5 potency (nM)/Nav1.7 potency (nM) [3] | Ratio 1.5:1.7 = Nav 1.5 potency (nM)/Nav1.7 potency (nM) [5]
7 | – | 6.48 | 7.28 | O=S(=O)(Nc1ncc(Cl)s1)c1cc2cnn(Cc3cccc4c3CNCC4)c2cc1F [Ex-3, N-(5-chlorothiazol-2-yl)-6-fluoro-1-((1,2,3,4-tetrahydroisoquinolin-8-yl)methyl)-1H-indazole-5-sulfonamide] | – | 91 | 636
8 | – | 7.62 | 7.68 | NC1CCc2cccc(Cn3ncc4cc(S(=O)(=O)Nc5ncns5)c(F)cc43)c2C1 (single isomer, unassigned) [Ex-14, (S or R)-1-((7-amino-5,6,7,8-tetrahydronaphthalen-1-yl)methyl)-6-fluoro-N-(1,2,4-thiadiazol-5-yl)-1H-indazole-5-sulfonamide] | – | 1394 | 1480
9 | – | 6.03 | 6.31 | O=S(=O)(Nc1ncns1)c1cc2cnn(Cc3ccccc3)c2cc1F [Ex-12, 1-benzyl-6-fluoro-N-(1,2,4-thiadiazol-5-yl)-1H-indazole-5-sulfonamide] | – | 15 | 174
10 | – | 6.07 | 5.95 | CN(C)CCNC(=O)c1cccc(-c2ccccc2Cn2ncc3cc(S(=O)(=O)Nc4ncns4)c(F)cc32)c1 [Ex-8, N-[2-(dimethylamino)ethyl]-2′-{[6-fluoro-5-(1,2,4-thiadiazol-5-ylsulfamoyl)-1H-indazol-1-yl]methyl}biphenyl-3-carboxamide] | – | 39 | 27
11 | – | 7.60 | 7.70 | O=S(=O)(Nc1nccs1)c1cc2cnn(Cc3cccc4c3CNCC4)c2cc1F [Ex-2, 6-fluoro-1-((1,2,3,4-tetrahydroisoquinolin-8-yl)methyl)-N-(thiazol-2-yl)-1H-indazole-5-sulfonamide] | – | 1200 | 2025
